{"source": "patent US7902346B2", "about": "“Fusion protein comprising FK506 binding protein and DNA encoding the same” (Industry Academic Cooperation Foundation, Hallym University, priority 2006, dated 2011)", "key": {"[1]": {"system": "human skin primary fibroblast cells", "assay": "Intracellular transduction of fusion protein into skin cells, Western blot analysis", "type": "cell-based", "method": "The human skin primary fibroblast cells obtained from Catholic University medical school (Korea) were cultured in Dulbecco's modified Eagle's medium (DMEM) containing 20 mM HEPES/NaOH (pH 7.4), 5 mM NaHCO3, 10% fetal bovine serum (FBS) and antibiotics ([…], 100 U/ml penicillin) at 37° C. under a humidified condition of 95% air and 5% CO2. For the transduction of Pep-1-FK506 binding proteins, skin cells were grown about […] to confluence on a 6-well plate. The culture medium was then replaced with fresh solution containing 10% fetal bovine serum. After skin cells were treated with one of 3 kinds of fusion protein of the FK506 binding protein (Pep-1 peptide is bound C-, N- or C-/N-terminus of FK506 binding protein respectively) for 1 hr, the cells were then treated with trypsin-EDTA and washed with phosphate-buffered saline (PBS). Thereafter the cells were harvested for the preparation of cell extracts to perform Western blot analysis.\nWestern blot analysis was performed to identify intracellular transduction of the fusion protein of FK506 binding protein. The protein was purified in nature form. […]\nThe transduced Pep-1-FK506BP proteins on the polyacrylamide gel were electrophoretically transferred to a nitrocellulose membrane. […]"}, "[2]": {"system": "cyclooxygenase-2", "assay": "Immunity inhibition effect: lipopolysaccharide-induced cyclooxygenase-2 expression in skin cells, Western blot", "type": "cell-based, human", "method": "Thereafter, one of 3 kinds of the fusion protein of FK506BP was added to the each group of cells, respectively. After lipopolysaccharides were added, the expression of cyclooxygenase-2 was monitored via the Western Blot analysis."}, "[3]": {"system": "epidermis of mouse", "assay": "Penetration of fusion protein into epidermis of mouse", "details": "in vivo"}}, "data": [{"substance": "Pep-1-FK506BP: Fusion protein of human FK506 binding protein with Pep-1 peptide (SEQ ID NO: 3) and six histidines at the amino terminus; Seq. No. 7", "values": [{"measurement": "transduction into skin cells (western blot)", "setting": "[1]; native fusion protein, 0.5-5 μM for 60 min and 5 μM for 10-60 min (FIG. 3)", "result": "transduced into skin cells in a time- and concentration-dependent manner"}, {"measurement": "time in which the protein was transduced", "setting": "[1]; skin cells treated with 5 μM for 10-60 min (FIG. 3B)", "result": "≤ 10", "unit": "min"}, {"measurement": "apoptosis induced by lipopolysaccharides", "setting": "[2]", "result": "inhibited apoptosis"}, {"measurement": "effect on lipopolysaccharide-induced cyclooxygenase-2 expression, treatment together with FK506", "setting": "[2]; fusion protein together with FK506, compared with fusion protein alone", "result": "more effective"}, {"measurement": "expression of cyclooxygenase-2 induced by lipopolysaccharides", "setting": "[2]; western blot (FIG. 5), 10 μM fusion protein", "result": "inhibited"}, {"measurement": "penetration into epidermis of mouse", "setting": "[3]", "result": "effectively penetrated"}]}]}
